Data taken from publication PMC6895180 (Nature Communications, 2019).
“And” between values parts separate entries of the source, which are not always exact repeats. Equal entries are not always repeated. Where two headings read alike, the source gives them in different places. Marks after values point to notes of the source that are not given here.

Assays:
[1] = tested on: ISMR1: isometamidium-resistant T. brucei cell line; assay: microbe, parasite or virus in culture; type: cell-based, Trypanosoma brucei brucei
Method in brief: (§1)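 Trypanosomes (2 × 10^4 cells/well) exposed 48 h at 37 °C/5% CO2 in HMI-9/FBS to 23-step doubling dilutions from 100 µM, then resazurin added for a further 24 h. Fluorescence fitted to a variable-slope sigmoid curve.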

[2] = tested on: TbAT1-KO: T. brucei cell line lacking the TbAT1(P2) transporter gene; assay: microbe, parasite or virus in culture; type: cell-based, Trypanosoma brucei brucei
Method in brief: as §1

[3] = tested on: MRC-5SV2 human embryonic lung fibroblasts; assay: Cytotoxicity on MRC-5 fibroblasts (resazurin); type: cell-based; details: source data; read-out: MRC-5 EC50, single measurements
Procedure: (§2) Cytotoxicity assays were performed on MRC-5SV2 (Sigma-Aldrich/ECACC, catalogue number 84100401) human embryonic lung fibroblasts, which were cultured in minimum essential medium with Earle’s salt medium, supplemented with L-glutamine, NaHCO3 and 5% inactivated foetal calf serum. All cultures and assays were conducted at 37 °C with 5% CO2. Ten microliters of the aqueous compound dilutions were added to 190 µL of MRC-5SV2 (3 × 10^4 cells mL^−1). Cell growth was compared to untreated control wells (100% cell growth) and medium control wells (0% cell growth). After a 3-day incubation, cell viability was assessed fluorimetrically after the addition of 50 μL resazurin per well (final concentration of 10 µg mL^−1). After 4 h at 37 °C, fluorescence was measured (λex 550 nm, λem 590 nm). The results were expressed as percentage reduction in cell growth/viability compared to control wells and an EC50 was determined.

[4] = Cytotoxicity on MRC-5 fibroblasts (resazurin); type: cell-based, human; details: human, MRC-5SV2 human embryonic lung fibroblasts, source data; read-out: MRC-5 EC50, single measurements
Procedure: as §2

[5] = tested on: T. b. rhodesiense STIB-900; assay: microbe, parasite or virus in culture; type: cell-based, Trypanosoma brucei rhodesiense
Procedure: (§3) Drug susceptibility tests with Lister 427WT, TbAT1-KO[48], B48[26] and ISMR1[27] were performed using an assay based on the viability indicator dye resazurin in 96-well plates, each well containing 2 × 10^4 cells. The plates were incubated for 48 h with a doubling dilution series of the test compounds in HMI-9/fetal bovine serum at 37 °C/5% CO2 (23 dilutions starting at 100 µM, except for the pentamidine control (50 µM)), after which resazurin (20 µL of 125 µg mL^−1 resazurin sodium salt solution was added to each well (containing 200 µL of cells and test compound)) was added to each well and the plates incubated for another 24 h. Fluorescence was determined using a FLUOstar Optima (BMG Labtech, Durham, NC) and the results fitted to a sigmoid curve with variable slope using Prism 5.0 or Prism 7.04 (GraphPad, San Diego, CA).
(§4) Susceptibility assays with T. brucei Squib 427[49] or T. b. rhodesiense STIB-900[50] were performed under similar conditions as above, but using 10 concentrations of a 4-fold compound dilution series starting at 64 µM. Trypanosoma brucei Squib 427 was seeded at 1.5 × 10^4 parasites/well and T. b. rhodesiense at 4 × 10^3 parasites per well, followed by the addition of resazurin (final concentration of 10 µg mL^−1) after 24 h (T. brucei) or 6 h (T. b. rhodesiense).

[6] = tested on: T. brucei Squib 427; assay: microbe, parasite or virus in culture; type: cell-based, Trypanosoma brucei brucei
Procedure: as §3, §4

[7] = tested on: B48: pentamidine, diminazene and melaminophenyl arsenical resistant T. brucei line; assay: microbe, parasite or virus in culture; type: cell-based, Trypanosoma brucei brucei
[8] = tested on: T. b. brucei Lister 427WT; assay: Drug susceptibility test (resazurin), Lister 427WT; type: cell-based, Trypanosoma brucei brucei
Method in brief: as §1

[9] = resistance factor vs Lister 427WT

Structure (SMILES): Nc1ncnc2c1c(Br)cn2[C@H]1C[C@H](O)[C@@H](CO)O1 [Compound 12, 7-Br-2′-deoxy-TUB]
- EC50 ([1]; Trypanosoma brucei, mean and SEM, n = 3, read-out: ISMR1 EC50): 920 ± 120 nM
- EC50 ([1]; Trypanosoma brucei, source data, read-out: ISMR1 EC50, AVG): 919 nM
- EC50 ([1]; Trypanosoma brucei, source data, read-out: ISMR1 EC50, single determinations): 1150 nM
- RF (ISMR1) [1, 9]: 2.93**
- EC50 ([1]; source data, read-out: ISMR1 EC50, single determinations): 731 nM and 876 nM
- EC50 ([2]; Trypanosoma brucei, read-out: TbAT1-KO EC50, AVG, source data): 758 nM
- EC50 ([2]; Trypanosoma brucei, read-out: TbAT1-KO EC50, mean and SEM, n = 3): 760 ± 180 nM
- EC50 ([2]; Trypanosoma brucei, read-out: TbAT1-KO EC50, single determinations, source data): 940 nM
- EC50 ([2]; read-out: TbAT1-KO EC50, single determinations, source data): 576 nM and 850 nM
- RF (TbAT1-KO) ([2]; resistance factor: ratio of EC50 of resistant and Lister 427WT): 2.37*
- EC50 [3]: 5.37 µM
- EC50 at 3 day [4]: 6.83 µM
- EC50 ([5]; Trypanosoma brucei, RHODESIENSE, Alamar blue cell viability assay, mean and SEM, read-out: T. b. rhodesiense EC50): 120 ± 10 nM
- EC50 ([5]; Trypanosoma brucei, RHODESIENSE, source data, read-out: T. brucei rhodesiense EC50, Average): 120 nM
- EC50 ([5]; Trypanosoma brucei, RHODESIENSE, source data, read-out: T. brucei rhodesiense EC50, single measurements): 116 nM
- SI (MRC/T.b. rhodesiense) ([5]; selectivity index): 50
- EC50 ([5]; source data, read-out: T. brucei rhodesiense EC50, single measurements): 126 nM
- EC50 ([6]; Trypanosoma brucei, Alamar blue cell viability assay, mean and SEM, read-out: T. b. brucei EC50): 460 ± 80 nM
- EC50 ([6]; Trypanosoma brucei, source data, read-out: T. brucei brucei EC50, Average): 460 nM
- EC50 ([6]; Trypanosoma brucei, source data, read-out: T. brucei brucei EC50, single measurements): 382 nM
- SI (MRC/T.b. brucei) ([6]; selectivity index): 13
- EC50 ([6]; source data, read-out: T. brucei brucei EC50, single measurements): 533 nM
- EC50 ([7]; Trypanosoma brucei, mean and SEM, n = 3, read-out: B48 EC50): 830 ± 160 nM
- EC50 ([7]; Trypanosoma brucei, source data, read-out: B48 EC50, AVG): 827 nM
- EC50 ([7]; Trypanosoma brucei, source data, read-out: B48 EC50, single determinations): 990 nM
- RF (B48) [7, 9]: 2.64**
- EC50 ([7]; source data, read-out: B48 EC50, single determinations): 664 nM and 844 nM
- EC50 ([8]; Trypanosoma brucei, mean and SEM, n = 3, read-out: Lister 427 EC50): 310 ± 63 nM
- EC50 ([8]; Trypanosoma brucei, source data, read-out: s427 EC50, AVG): 313 nM
- EC50 ([8]; Trypanosoma brucei, source data, read-out: s427 EC50, single determinations): 376 nM
- EC50 ([8]; source data, read-out: s427 EC50, single determinations): 251 nM and 355 nM
